These results are taken from patent publication US20070123586A1, “Nitroso derivatives of diphenylamine” (priority 2003, published 2007).

Data set [1] in a line: Spontaneous nitric oxide release: nitrites+nitrates titrated by Griess colorimetry with nitrate reductase. The following applies: test product final concentration 150 μM, incubated four hours at 37° C., pH 7.5 PBS buffer, Griess reagent, OD 540 nm. The procedure: A solution of a compound of the invention of the formula I spontaneously releases nitric oxide. The nitrite ions resulting therefrom are titrated by colorimetry by means of a specific reagent (Griess). To take account of any release of nitrate ions in addition to the nitrite ions, bacterial nitrate reductase is added to the reaction medium, which makes it possible to reduce the nitrate ions formed.
The reactions and measurements are performed in transparent 96-well plates. The test products are dissolved extemporaneously at a concentration of 3 mM in dimethyl sulfoxide. 95 μl of a reagent comprising nitrate reductase (0.18 U/ml in 0.100 mM pH 7.5, PBS buffer, β-NADPH 210 μM, FAD 5 μM) and 5 μl of the solution of the test product (final concentration of 150 μM) are then introduced into each well. After stirring, the mixture is incubated for four hours at 37° C. The reaction is then quenched by addition of 100 μl of the Griess reagent (Sigma G4410). This reagent is left to act for five minutes at room temperature, and the optical density is then read at 540 nm. This value is proportional to the concentration of nitrites+nitrates in the medium. A calibration range is made for each plate using NaNO2.
The results are expressed in μmol/l (μM) of nitrites+nitrates released in Table I for some of the compounds of the formula I illustrated below.
In general terms: Nitrite, measured by Griess reagent, commonly stands in for NO production.

The next data set relates to Human LDLs. The data set is described as follows: Antioxidant effect: cupric ion-induced oxidation of human LDL (fluorescence). The class given is biochemical. The following applies: human LDL 120 μg/ml, CuCl2, 37° C., fluorescence difference 2 h vs 24 h, from three concentrations. How it is done: Human LDLs placed in aqueous solution in the presence of cupric ions, become spontaneously oxidized on their protein component, apolipoprotein-B. This oxidation makes the particle fluorescent, which is exploited to measure a pharmacological effect.
The reactions and measurements are performed in black 96-well plates. 10 μl of a solution of the test product dissolved in dimethyl sulfoxide are first mixed with 170 μl of a solution of human LDL at a concentration of 120 μg/ml and 20 μl of 100 μM CuCl2. After stirring, the mixture is incubated for 2 hours at 37° C., and a first fluorescence reading is taken (excitation at 360 nm, reading at 460 nm). The mixture is then incubated for a further 22 hours, to take a second reading under the same conditions. The difference is proportionately smaller the greater the antioxidant power of the test product. Probucol is used as reference product at a concentration of 10 μM.
The concentrations that inhibit 50% (IC50) of the oxidation are prepared from three concentrations of the test product. They are given in Table II below for some of the compounds of the formula I given as examples below.

For another data set, the system named is fatty Zucker rats. The data set is described as follows: Hypotriglyceridaemiant activity in fatty Zucker rats. In kind it is in vivo, rat. The following applies: 9-week-old male Zucker rats, 200 mg/kg/day p.o. for eight days, after fasting four hours. The procedure:
The compounds were tested on fatty Zucker rats (Zucker L. M. et al., 1961, Fatty a new mutation in the rat, J. Hered., 52: 275-278). This animal is hyperphagic, obese and hyperinsulinaemic. It develops resistance to insulin, it is hyperlipidaemic, and has a large hypertriglyceridaemia.
9-week-old male Zucker rats were treated for eight days with the compounds of Example 2 and Example 5 at a dose of 200 mg/kg/day p.o. After fasting for four hours, a blood sample is taken to recover the plasma. […] The compound of Example 5 has a 21% […] effect (p<0.05) and reduces insulin by 45% (p<0.05).

Consider `O=NN(c1ccc(C(=O)O)cc1)c1ccc([N+](=O)[O-])cc1` [Example 13], for which the “Nitrites—Nitrates released” value in data set [1] worked out at 86 µM. In the data set on Human LDLs, this compound had an IC50 of 4.6 µM. In the case of `COc1ccc(N(N=O)c2ccc(CC(=O)O)cc2)cc1` [Example 17], the “Nitrites—Nitrates released” value in data set [1] amounted to 58 µM. In the data set on Human LDLs, the IC50 was 11.6 µM. As to `O=NN(c1ccc(C(=O)O)cc1)c1ccc(C(=O)O)cc1` [Example 30, 4,4′-(Nitrosoimino)dibenzoic acid], the “Nitrites—Nitrates released” value in data set [1] was 58 µM. `COc1ccc(N(N=O)c2ccc(C#N)cc2)cc1` [Example 6, 4-[(4-Methoxyphenyl)(nitroso)amino]benzonitrile] displayed a melting point of 88 to 90 °C. Further, the “Nitrites—Nitrates released” value in data set [1] was found to be 43 µM. For `COc1ccc(N(N=O)c2ccc(C(C)=O)cc2)cc1` [Example 18], in data set [1], the “Nitrites—Nitrates released” value was determined as 81 µM. For the compound `COc1ccc(N(N=O)c2ccc(CO)cc2)cc1` [Example 8, {4-[(4-Methoxyphenyl)(nitroso)amino]phenyl}methanol], the “Nitrites—Nitrates released” value in data set [1] was 88 µM. Besides, in the data set on Human LDLs, the IC50 turned out to be 18.4 µM. Consider `CCOC(=O)c1ccc(N(N=O)c2ccc(C#N)cc2)cc1` [Example 10], for which the “Nitrites—Nitrates released” value in data set [1] was found to be 76 µM. Further, the IC50 in the data set on Human LDLs turned out to be 6.2 µM. Consider `CS(=O)(=O)c1ccc(N(N=O)c2ccc(C(=O)O)cc2)cc1` [Example 15], for which the “Nitrites—Nitrates released” value in data set [1] was 88 µM.

Consider `N#Cc1ccc(N(N=O)c2ccc(C(=O)O)cc2)cc1` [Example 14], for which the “Nitrites—Nitrates released” value in data set [1] is 69 µM. With `CCOC(=O)c1ccc(N(N=O)c2ccc(S(C)(=O)=O)cc2)cc1` [Example 12], the “Nitrites—Nitrates released” value in data set [1] amounted to 38 µM. In the case of `O=NN(c1ccc(C(=O)O)cc1)c1ccc(C(F)(F)F)cc1` [Example 5, 4-{Nitroso[4-(trifluoromethyl)phenyl]amino}benzoic acid], the “Nitrites—Nitrates released” value in data set [1] worked out at 108 µM. In the data set with fatty Zucker rats, the “reduction in triglycerides (plasma)” value stood at 21% and the “reduction of insulinaemia (plasma insulin)” value stood at 45%.

Turning to `COc1ccc(N(N=O)c2ccc(C(=O)O)cc2)cc1` [Example 2, 4-[(4-Methoxyphenyl)(nitroso)amino]benzoic acid], the melting point lay within 169 to 171 °C. The “Nitrites—Nitrates released” value in data set [1] worked out at 87 µM. This compound gave a half-inhibitory concentration (IC50) in the data set with Human LDLs of 17 µM. Further, in the data set with fatty Zucker rats, the “reduction in triglycerides (plasma)” value stood at 58% and the “reduction of insulinaemia (plasma insulin)” value is listed as 47%. Consider `O=NN(c1ccc(F)cc1)c1ccc(C(=O)O)cc1` [Example 19], for which the “Nitrites—Nitrates released” value in data set [1] was determined as 79 µM. Regarding `COc1ccc(N(N=O)c2ccc(C(N)=O)cc2)cc1` [Example 42], in data set [1], the “Nitrites—Nitrates released” value stood at 79 µM.

Usually IC50 stands for the midpoint of a concentration-inhibition curve. Broadly, the melting point is the temperature, or range, at which the solid turns liquid.
